Publication PMC12866788, “Alternative Pathway for Methyl Supply through the Coupling of SHMT1 and PEMT to Maintain Astrocytic Homeostasis in Parkinson's Disease” (Advanced Science, 2025)

Target: T1, SHMT1-PEMT complex (Mus musculus, UniProt P50431+Q61907)
T1 construct: native SHMT1-PEMT complex, co-immunoprecipitate / NP-40 lysate of mouse primary astrocytes; full length, untagged; direct SHMT1-PEMT contact not proven
T1 sequence (P50431 1-478): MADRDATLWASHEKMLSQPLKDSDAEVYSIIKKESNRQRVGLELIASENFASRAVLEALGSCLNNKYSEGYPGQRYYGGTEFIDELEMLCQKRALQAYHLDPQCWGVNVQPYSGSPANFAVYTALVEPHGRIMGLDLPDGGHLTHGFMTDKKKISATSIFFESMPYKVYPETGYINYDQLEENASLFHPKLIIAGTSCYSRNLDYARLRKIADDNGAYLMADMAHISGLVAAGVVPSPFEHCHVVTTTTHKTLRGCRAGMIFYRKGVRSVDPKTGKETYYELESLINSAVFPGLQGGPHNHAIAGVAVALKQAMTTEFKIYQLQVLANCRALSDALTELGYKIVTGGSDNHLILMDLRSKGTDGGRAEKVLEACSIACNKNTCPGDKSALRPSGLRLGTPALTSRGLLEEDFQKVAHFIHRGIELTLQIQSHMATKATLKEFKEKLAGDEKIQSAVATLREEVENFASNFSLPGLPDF
T1 sequence (Q61907 1-199): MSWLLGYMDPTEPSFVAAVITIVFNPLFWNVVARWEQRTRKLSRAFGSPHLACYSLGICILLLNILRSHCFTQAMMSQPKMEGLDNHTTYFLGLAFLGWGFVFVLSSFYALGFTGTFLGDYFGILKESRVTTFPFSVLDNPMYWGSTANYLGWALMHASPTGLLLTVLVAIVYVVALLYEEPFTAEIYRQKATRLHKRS
Assay: CETSA and DARTS of co-IP samples, Western blot
Type: biochemical
Settings: 10 µM isoorientin; astrocytes with MPP+ 24 h; heating at 37-67 °C 3 min; protease K digestion 1:400-1:3200; either chain may hold the compound

`O=c1cc(-c2ccc(O)c(O)c2)oc2cc(O)c([C@@H]3O[C@H](CO)[C@@H](O)[C@H](O)[C@H]3O)c(O)c12` [TMA0698, Isoorientin] was tested, and the “CETSA and DARTS of co-IP samples, Western blot” value was “we found that Iso significantly promoted SHMT1 and PEMT protein stability”.
